# Data from patent US11771086B2, “Pest control composition including novel iminopyridine derivative” (priority 2012, dated 2023).
# Several values for one entry are separate records, joined by “and”; a condition that tells them apart may be missing. Equal values may be shown once. Read-outs that look alike come from different tables or passages of the source.
# Legend:
# [1] = system: Spodoptera litura; test: Reference Test Example 2 Pest control test of Spodoptera litura (foliar treatment, single agent); type: in vivo; details: 72 h
# From the text: After an air drying process, third instar larvae were released thereto. […] Test in duplicate.
# [2] = system: Aphis gossypii; test: Reference Test Example 3 Pest control test of Aphis gossypii (foliar treatment, single agent); type: in vivo; details: Aphis gossypii, foliar, 72 h
# Method: After an air drying process, first instar larvae were released thereto. Thereafter, the larvae were left to stand in a thermostatic chamber (16 hours of light period-8 hours of dark period) at 25° C. […] Test in duplicate. Mortality (%)={number of dead larvae/(number of survived larvae+number of dead larvae)}×100
# [3] = system: Laodelphax striatella; test: Reference Test Example 4 Pest control test of Laodelphax striatella (foliar treatment, single agent); type: in vivo; details: Laodelphax striatellus, 72 h
# From the text: (§1) After an air drying process, second instar larvae were released thereto. […] Test in duplicate.
# [4] = system: Nilaparvata lugens; test: Reference Test Example 5 Pest control test of Nilaparvata lugens (foliar treatment, single agent); type: in vivo; details: 144 h
# From the text: as §1
# [5] = system: Nephotettix cincticeps; test: Reference Test Example 7 Pest control test of Nephotettix cincticeps (foliar treatment, single agent); type: in vivo; details: 96 h
# From the text: as §1
# [6] = system: Frankliniella occidentalis; test: Reference Test Example 9 Pest control test of Frankliniella occidentalis (foliar treatment, single agent); type: in vivo; details: 72 h
# Method: After an air drying process, first instar larvae were released to the leaf disk. Thereafter, the larvae were left to stand in a thermostatic chamber (16 hours of light period-8 hours of dark period) at 25° C. […] Test in duplicate. Mortality of larvae (%)={number of dead larvae/(number of survived larvae+number of dead larvae)}×100
# [7] = system: Trigonotylus caelestialium; test: Reference Test Example 10 Pest control test of Trigonotylus caelestialium (dipping treatment); type: in vivo; details: 72 h
# Method: After an air drying process, the wheat seedling leaves and stems were placed into a glass tube, and two second instar larvae of Trigonotylus coelestialium were released to the same glass tube. After the larvae were released, the tube was lidded to leave the larvae to stand in a thermostatic chamber at 25° C. In order to supply water to the wheat during the test, water was given to the wheat from the bottom of the glass tube. […] Test in triplicate.
# [8] = system: Oulema oryzae; test: Reference Test Example 12 Pest control test of Oulema oryzae (topical application); type: in vivo; details: throughput of 0.5 μg/head; adults; forty eight hours after the treatment
# Method: 1 μL(/head) of a drug solution of the compound of Formula (I) prepared at a predetermined concentration with acetone was topically applied and treated to the back of adults collected outdoors by a micro syringe. After the drug treatment, the adults were transferred to rice seedlings and left to stand in a thermostatic chamber at 25° C. so as to obtain 5 heads per stem. […] Test in duplicate. Mortality of adults (%)={number of dead adults/(number of survived adults+number of dead adults)}×100
# [9] = system: Lissorhoptrus oryzophilus; test: Reference Test Example 17 Pest control test of Lissorhoptrus oryzophilus (soil drench, single agent); type: in vivo; details: throughput of 0.1 mg/seedling, adults, three days after the release
# From the text: Two days after the treatment, five adults of Lissorhoptrus oryzophilus were each released thereto. […] Test in duplicate.
# [10] = system: Nilaparvata lugens resistant population I; test: Reference Test Example 19 Pest control test of Nilaparvata lugens, resistant population I (soil drench); type: in vivo; details: for Insecticidal effects against Nilaparvata lugens (death rate %), Resistant population I: soil drench, six days
# Method: Three days after the treatment, ten second instar larvae of Nilaparvata lugens, which had been collected outdoors and proliferated indoors, were each released to the rice seedling. […] Test in duplicate.
# Furthermore, for comparison, the test against a species of Nilaparvata lugens which is highly susceptible to imidacloprid was performed by the same method as described above, and the results thereof are shown in Table 45. […] Meanwhile, the death rates of imidacloprid at 0.05 mg/seedling were (susceptible species) 100%, (resistant population I) 38% and (resistant population II) 69%, and the insecticidal effect thereof was also low even at a high dose. From the above results, it became obvious that Compound P212 and Compound 1-20 have high insecticidal effects even against Nilaparvata lugens resistance against imidacloprid.
# Further, for the origin of test pests, bugs collected outdoors from the Kumamoto prefecture (I) in 2007 and from the Fukuoka prefecture (II) in 2005 as resistant population of Nilaparvata lugens, and bugs collected from the Kagoshima prefecture and then successively reared indoors for a long time as the imidacloprid susceptible population of Nilaparvata lugens were used.
# [11] = system: Laodelphax striatella; test: whole plant or invertebrate; type: in vivo
# Method: (§2) After an air drying process, second instar larvae were released thereto. […] The test was performed in duplicate.
# (§3) Method for Judging Synergistic Effects
# [12] = system: Plutella xylostella; test: whole plant or invertebrate; type: in vivo
# Method: as §2, §3
# [13] = system: Frankliniella occidentalis; test: whole plant or invertebrate; details: Frankliniella occidentalis
# Method: After an air drying process, first instar larvae were released thereto. Thereafter, the larvae were left to stand in a thermostatic chamber (16 hours of light period-8 hours of dark period) at 25° C. […] The test was performed in duplicate. Mortality of larvae (%)={number of dead larvae/(number of survived larvae+number of dead larvae)}×100
# (A: 100−(mortality of larvae or adults when treated only with Compound P212)
# B: 100−(mortality of larvae or adults when treated with only the insecticide imidacloprid, dinotefuran, or acetamiprid))
# as §3
# When the mortality against Frankliniella occidentalis in the case of a mixture with another agent exceeded the theoretical value given by Colby's equation, a synergistic effect was judged to be present.
# [14] = system: Chilo suppressalis; type: in vivo; details: for Theoretical value by Colby's equation: Chilo suppressalis; for Mortality of single agent against Chilo suppressalis: soil irrigation, six days after release
# Method: After standing for 3 days, second instar larvae were released thereto. […] The test was performed in duplicate.
# as §3
# [15] = system: Naranga aenescens; type: in vivo
# Method: After standing for 3 days, first instar larvae were released thereto. […] The test was performed in duplicate.
# as §3
# [16] = system: Callosobruchus chinensis; type: in vivo
# Method: A compound of Formula (I) and the insecticide indicated below, prepared in predetermined concentrations using acetone, were separately topically applied to the back of the same adult Callosobruchus chinensis. […] The test was performed in duplicate. Insect mortality (%)={number of dead insects/(number of survived insects+number of dead insects)}×100
# (A: 100−(insect mortality for treatment with only Compound P212)
# B: 100−(insect mortality for treatment with only the insecticide fipronil or imidacloprid))
# as §3
# [17] = system: Rhizoctonia solani; test: Test Example 12 Test of control of rice sheath blight (Rhizoctonia solani); type: in vivo; details: single agent 50 ppm; foliar spray; six days after inoculation
# [18] = system: Laodelphax striatellus; test: Test Example 14 Test with Laodelphax striatellus by soil irrigation treatment (mixture with paddy herbicide); type: in vivo; details: five days after release
# Method: After standing for three days, second instar larvae were released thereto. […] The test was performed in duplicate.
# [19] = foliar, 72 h, read-out: Mortality of single agent against Frankliniella occidentalis
compound,measurement,setting,value
"O=C(N=c1ccccn1Cc1ccc(Cl)nc1)C(F)(F)F [Compound P212, N-[1-((6-chloropyridin-3-yl)methyl)pyridin-2(1H)-ylidene]-2,2,2-trifluoroacetamide]",mortality at 500 ppm,[1],≥ 80%
same,mortality at 100 ppm,[2],≥ 80%
same,mortality at 100 ppm,[3],≥ 80%
same,mortality at 100 ppm,[4],≥ 80%
same,mortality at 100 ppm,[5],≥ 80%
same,mortality at 500 ppm,[6],≥ 80%
same,mortality at 50 ppm,[7],≥ 80%
same,mortality,[8],≥ 80%
same,mortality,[9],≥ 80%
same,death rates of larvae,"[10]; resistant population I, 0.005 mg/seedling, six days after the release",95%
same,"Insecticidal effects against Nilaparvata lugens (death rate %), Resistant population I",[10]; throughput 0.005 mg/seedling,95%
same,"Insecticidal effects against Nilaparvata lugens (death rate %), Resistant population I",[10]; throughput 0.05 mg/seedling,100%
same,Theoretical value by Colby's equation,"[11]; Laodelphax striatella foliar, single agent 0.625 ppm (other component 0)",95%
same,mortality at 0.625 ppm,"[11]; Laodelphax striatellus, foliar, 72 h, read-out: Mortality of single agent against Laodelphax striatella",95%
same,mortality at 1 ppm,"[12]; Plutella xylostella, foliar, 72 h, read-out: Mortality of single agent against Plutella xylostella, single agent 1.0 ppm, cabbage leaf disk spray, three days",40%
same,mortality at 1.25 ppm,"[12]; Plutella xylostella, foliar, 72 h, read-out: Mortality of single agent against Plutella xylostella, single agent 1.25 ppm, cabbage leaf disk spray, three days",0%
same,mortality at 2 ppm,"[12]; Plutella xylostella, foliar, 72 h, read-out: Mortality of single agent against Plutella xylostella, single agent 2.0 ppm, cabbage leaf disk spray, three days",60%
same,Theoretical value by Colby's equation,"[12]; Plutella xylostella, single agent 1.0 ppm (other component 0)",40% and 30%
same,Theoretical value by Colby's equation,"[12]; Plutella xylostella, single agent 1.25 ppm (other component 0)",0%
same,Theoretical value by Colby's equation,"[12]; Plutella xylostella, single agent 2.0 ppm (other component 0)",60% and 50%
same,Mortality of single agent against Plutella xylostella,"[12]; single agent 1.0 ppm, cabbage leaf disk spray, three days",30%
same,Mortality of single agent against Plutella xylostella,"[12]; single agent 2.0 ppm, cabbage leaf disk spray, three days",50%
same,mortality at 10 ppm,[13]; [19],69%
same,mortality at 20 ppm,[13]; [19],70%
same,Theoretical value by Colby's equation,[13]; single agent 10 ppm (other component 0),69%
same,Theoretical value by Colby's equation,[13]; single agent 20 ppm (other component 0),70%
same,Theoretical value by Colby's equation,[14]; single agent 0.002 mg/seedling (other component 0),40%
same,Theoretical value by Colby's equation,[14]; single agent 0.01 mg/seedling (other component 0),33%
same,Mortality of single agent against Chilo suppressalis,[14]; single agent 0.002 mg/seedling,40%
same,Mortality of single agent against Chilo suppressalis,[14]; single agent 0.01 mg/seedling,33%
same,Theoretical value by Colby's equation,"[15]; Naranga aenescens, single agent 0.01 mg/seedling (other component 0)",60%
same,Mortality of single agent against Naranga aenescens,"[15]; single agent 0.01 mg/seedling, soil irrigation, five days after release",60%
same,Theoretical value by Colby's equation,"[16]; Callosobruchus chinensis, single agent 0.2 ng/head (other component 0)",20%
same,Mortality of single agent against Callosobruchus chinensis,"[16]; single agent 0.2 ng/head, topical, one day",20%
same,"Preventive value (Sheath blight test, lesion height)",[17],14 and 9
same,Mortality of larvae (Laodelphax striatellus),[18]; single agent 0.005 mg/seedling,0%
same,Mortality of larvae (Laodelphax striatellus),[18]; single agent 0.01 mg/seedling,100%
